Test results taken from patent US11253471B2, “Rectal mucosal administration preparation of Pulsatilla chinensis saponin B4 and preparation method therefor” (priority 2018, dated 2022).

Assays:
[1] = test system: cisplatin-induced acute kidney injury in mice; assay: Cisplatin-induced acute kidney injury in mice: serum indexes and urinary protein; assay type: in vivo, ICR mice; conditions: for Urinary Protein / BUN / CREA / TP: by gavage, 4 days; for Urinary Protein: one hour after the last administration; for BUN / CREA / TP: serum
Procedure: After intraperitoneal injection of cisplatin, cisplatin was toxic to different parts of the kidney. It could cause changes in the function and morphology of glomerulus and renal tubules. Cisplatin could cause renal vasoconstriction, reduce renal blood flow and glomerular filtration rate, and thus cause proteinuria, renal function damage and other symptoms. In this study, B4 was administered by different routes (rectum and oral) to observe the preventive and therapeutic effects of B4 on cisplatin-induced ARF in mice.
2.1.2 Reagent: cisplatin, the original solution 5 mg/kg.
(§1) Dexamethasone solution: 4 tablets of dexamethasone were ground and dissolved in 100 ml double distilled water, and then diluted to 0.03 mg/ml.
B4 raw powder solution: 1000 mg of B4 raw powder was weighed, ground, and dissolved in 100 ml double distilled water to obtain 10 mg/ml solution.
The model was established by cisplatin at a dosage of […]. The normal group was intraperitoneally injected with normal saline, and the other groups were intraperitoneally injected with cisplatin injection.
The animals were randomly divided into blank group; model group; positive drug group (dexamethasone group); B4 gel high, medium, and low dose groups; B4 suppository high, medium, and low dose groups; B4 raw powder group; 10 animals for each group. Animals in B4 gel groups received the gel by rectum at 0.3 ml/100 g body weight; animals in B4 suppository groups received the suppository by rectum; B4 raw powder group and positive group were given corresponding drugs by gavage according to 20 m/kg body weight. The model group and the blank group were given the same volume of double distilled water by gavage. The drug was continuously administered for 4 days from the day of modeling. Animals were fasted for 16-18 hours before administration on day 4.
One hour after the last administration, urine was collected to measure urine proteins. Blood samples were taken from eyeballs to separate serum. Total protein (TP), urea nitrogen (BUN) and creatinine (Cre) were detected by automatic biochemical analysis.

[2] = test system: gentamicin-induced acute kidney injury in rats; assay: Gentamicin-induced acute kidney injury in rats: serum indexes and urinary protein; assay type: in vivo, SD rats; conditions: for Urinary Protein, 5th day of administration / Urinary Protein, 6th day of administration / Urinary Protein, 7th day of administration / BUN / CREA / TP: by gavage; for BUN / CREA / TP: serum, 7 days
Source text: Acute renal failure induced by gentamicin was mainly manifested in the increase of creatinine and urea nitrogen, but the mechanism of gentamicin induced nephrotoxicity was still unclear. In this experiment, two kinds of rectal mucosa administration preparations of Pulsatilla chinensis saponin B4 according to the present invention were infused by anus to observe the preventive and therapeutic effects of tested drugs on gentamicin-induced ARF in rats, and compared with oral (gavage) administration of Pulsatilla chinensis saponin B4.
as §1
B4 raw powder solution: 2000 mg of B4 raw powder was weighed, ground, and dissolved in 100 ml double distilled water to obtain 20 mg/ml solution.
Rats in experimental groups were intraperitoneally injected with gentamicin sulfate solution at the dose of 140 mg/kg, while the rats in the blank group were intraperitoneally injected with equal volume of normal saline, and the administration was continued for 7 days to make a model.
The animals were randomly divided into blank group; model group; positive drug group (dexamethasone group); B4 gel high, medium, and low dose groups; B4 suppository high, medium, and low dose groups; B4 powder group; 10 animals for each group. Animals in B4 gel groups received the gel by rectum at 0.3 ml/100 g body weight; animals in B4 suppository groups received the suppository by rectum; B4 raw powder group and positive group were given corresponding drugs by gavage according to 10 ml/kg body weight. The model group and the blank group were given the same volume of double distilled water by gavage. The drug was continuously administered for 7 days from the second day of modeling.
Urine proteins were detected by Coomassie brilliant blue method. After isoflurane anesthesia, blood samples were taken from eyeballs of rats. Serum was separated. Total protein (TP), urea nitrogen (BUN), and creatinine (CRE) were detected by automatic biochemical analysis.

[3] = gel and suppository by rectum, raw powder oral

C=C(C)C1CC[C@]2(C(=O)O[C@@H]3O[C@H](CO[C@@H]4O[C@H](CO)[C@@H](O[C@@H]5O[C@@H](C)[C@H](O)[C@@H](O)[C@H]5O)[C@H](O)[C@H]4O)[C@@H](O)[C@H](O)[C@H]3O)CC[C@]3(C)[C@H](CC[C@@H]4[C@@]5(C)CC[C@H](OC6OC[C@H](O)[C@H](O)[C@H]6O[C@@H]6O[C@@H](C)[C@H](O)[C@@H](O)[C@H]6O)[C@@](C)(CO)[C@@H]5CC[C@]43C)[C@@H]12 (stereo partly shown) [B4 raw powder, Pulsatilla chinensis saponin B4]
Urinary Protein ([1]; 400 mg/kg): 1.55 mg/mL | effect on renal function, conclusion in words [1, 3]: no significant difference compared with the model group | BUN ([1]; 400 mg/kg): 55.86 mg/dL | CREA ([1]; 400 mg/kg): 38.11 ± 9.56 µmol/L | TP ([1]; 400 mg/kg): 46.12 ± 2.27 g/L | Urinary Protein, 5th day of administration ([2]; 200 mg/kg): 4.86 ± 1.22 mg/mL | Urinary Protein, 6th day of administration ([2]; 200 mg/kg): 5.18 ± 1.15 mg/mL | Urinary Protein, 7th day of administration ([2]; 200 mg/kg): 5.38 ± 0.92 mg/mL | effect on renal function (creatinine and urea nitrogen), conclusion in words [2, 3]: had a tendency to improve the renal function | BUN ([2]; 200 mg/kg): 126.4 mg/dL | CREA ([2]; 200 mg/kg): 268.7 ± 56.2 µmol/L | TP ([2]; 200 mg/kg): 53.2 ± 4.3 g/L

C[C@@H]1C[C@H]2[C@@H]3CCC4=CC(=O)C=C[C@]4(C)[C@@]3(F)[C@@H](O)C[C@]2(C)[C@@]1(O)C(=O)CO [Dexamethasone, reference compound]
Urinary Protein ([1]; 0.6 mg/kg): 1.00 mg/mL | BUN ([1]; 0.6 mg/kg): 42.97 mg/dL | CREA ([1]; 0.6 mg/kg): 30.10 µmol/L | TP ([1]; 0.6 mg/kg): 52.90 g/L | Urinary Protein, 5th day of administration ([2]; 0.3 mg/kg): 5.15 ± 0.89 mg/mL | Urinary Protein, 6th day of administration ([2]; 0.3 mg/kg): 5.52 ± 1.36 mg/mL | Urinary Protein, 7th day of administration ([2]; 0.3 mg/kg): 5.63 ± 0.58 mg/mL | BUN ([2]; 0.3 mg/kg): 79.3 ± 33.6 mg/dL | CREA ([2]; 0.3 mg/kg): 83.2 ± 31.9 µmol/L | TP ([2]; 0.3 mg/kg): 65.7 ± 5.8 g/L
